Data on 14 molecules can be found in patent US20240208992A1, “MACROCYCLES AS CFTR MODULATORS” (Idorsia Pharmaceuticals Ltd, priority 2021, published 2024).

The target in this assay is human F508del-CFTR (Homo sapiens, UniProt P13569, DEL508-508). In words: F508del-CFTR cell surface expression (corrector activity), DiscoveRx ß-galactosidase complementation chemiluminescence assay in recombinant U2OS cell line.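 As to all read-outs here: U2OS cells co-expressing ProLink-tagged F508del-CFTR and a membrane-anchored enzyme acceptor, where more surface CFTR restores β-galactosidase activity measured by chemiluminescence.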 The following applies: U2OS cells, 16h compound incubation; for EC50: EC50, F508del-CFTR cell surface expression, geomean of several measurements; for Emax: U2OS, in relation to the Emax of the corrector lumacaftor (=100%), arithmetic mean.
Sequence of human F508del-CFTR (P13569 with tags, fused parts or gaps DEL508-508): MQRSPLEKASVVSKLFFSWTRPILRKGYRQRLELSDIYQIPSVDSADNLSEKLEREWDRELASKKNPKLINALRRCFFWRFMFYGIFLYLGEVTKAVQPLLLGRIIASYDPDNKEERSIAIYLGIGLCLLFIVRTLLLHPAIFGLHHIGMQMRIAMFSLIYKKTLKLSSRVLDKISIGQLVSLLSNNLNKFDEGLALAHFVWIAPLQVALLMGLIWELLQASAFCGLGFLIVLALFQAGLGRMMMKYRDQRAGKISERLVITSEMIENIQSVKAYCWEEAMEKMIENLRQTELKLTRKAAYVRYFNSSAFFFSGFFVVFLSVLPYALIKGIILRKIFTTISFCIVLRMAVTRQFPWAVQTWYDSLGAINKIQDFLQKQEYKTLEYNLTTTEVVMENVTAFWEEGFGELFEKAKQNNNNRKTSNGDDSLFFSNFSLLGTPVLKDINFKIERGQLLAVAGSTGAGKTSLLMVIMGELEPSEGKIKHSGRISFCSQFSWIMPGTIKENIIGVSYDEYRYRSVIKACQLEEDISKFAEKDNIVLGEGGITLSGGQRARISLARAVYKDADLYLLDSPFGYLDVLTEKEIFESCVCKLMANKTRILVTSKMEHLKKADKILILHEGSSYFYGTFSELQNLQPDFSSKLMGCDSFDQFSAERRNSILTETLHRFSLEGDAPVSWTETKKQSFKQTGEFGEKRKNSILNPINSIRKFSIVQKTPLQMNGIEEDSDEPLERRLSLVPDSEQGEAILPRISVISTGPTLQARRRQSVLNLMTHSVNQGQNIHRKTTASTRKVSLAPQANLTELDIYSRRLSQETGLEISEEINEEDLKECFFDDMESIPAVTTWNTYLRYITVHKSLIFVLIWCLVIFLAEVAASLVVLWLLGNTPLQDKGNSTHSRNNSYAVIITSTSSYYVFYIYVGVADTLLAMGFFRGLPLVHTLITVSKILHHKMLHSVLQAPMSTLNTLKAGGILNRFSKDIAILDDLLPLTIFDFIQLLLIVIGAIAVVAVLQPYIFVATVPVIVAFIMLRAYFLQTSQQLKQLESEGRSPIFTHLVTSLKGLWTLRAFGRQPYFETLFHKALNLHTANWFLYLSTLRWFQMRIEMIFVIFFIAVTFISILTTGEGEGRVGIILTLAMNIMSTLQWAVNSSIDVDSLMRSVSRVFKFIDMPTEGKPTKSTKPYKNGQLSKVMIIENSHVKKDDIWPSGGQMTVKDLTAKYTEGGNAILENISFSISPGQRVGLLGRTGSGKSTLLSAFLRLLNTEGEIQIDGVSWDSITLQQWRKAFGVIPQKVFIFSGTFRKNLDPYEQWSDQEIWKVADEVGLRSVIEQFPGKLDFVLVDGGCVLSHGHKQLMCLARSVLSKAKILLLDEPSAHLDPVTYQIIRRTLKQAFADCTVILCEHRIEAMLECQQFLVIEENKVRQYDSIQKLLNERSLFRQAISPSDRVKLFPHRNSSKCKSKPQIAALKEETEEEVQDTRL

In general, EC50 refers to the concentration at which the effect is half-maximal. The term Emax denotes the size of the effect at its maximum, as opposed to the concentration needed. With `COc1noc(CCNC(=O)[C@@H]2CC(=O)N(C)[C@@H](CC(C)C)C(=O)N(C)[C@H](CC(F)(F)F)C(=O)N[C@H](Cc3ccccc3)COc3ccc4ncc(F)cc4c3C(=O)N2)n1` [Example 941, (3S,7S,10R,13R)-13-benzyl-20-fluoro-7-isobutyl-N-(2-(3-methoxy-1,2,4-oxadiazol-5-yl)ethyl)-6,9-dimethyl-1,5,8,11-tetraoxo-10-(2,2,2-trifluoroethyl)-1,2,3,4,5,6,7,8,9,10,11,12,13,14-tetradecahydro-[1]oxa[4,7,10,14]tetraazacycloheptadecino[16,17-f]quinoline-3-carboxamide], the EC50 amounted to 135 nM and the Emax stood at 459%.
On the same counts, the results for `COc1noc(CCNC(=O)[C@@H]2CC(=O)N(C)[C@@H](CC(C)C)C(=O)N(C)[C@H](CC(F)(F)F)C(=O)N[C@H](Cc3ccccc3)COc3cc(C)nc(OC)c3C(=O)N2)n1` [Example 942, (3R,6R,9S,13S)-3-benzyl-9-isobutyl-16-methoxy-N-(2-(3-methoxy-1,2,4-oxadiazol-5-yl)ethyl)-7,10,18-trimethyl-5,8,11,15-tetraoxo-6-(2,2,2-trifluoroethyl)-2,3,4,5,6,7,8,9,10,11,12,13,14,15-tetradecahydropyrido[3,4-p][1]oxa[4,7,10,14]tetraazacycloheptadecine-13-carboxamide] are 194 nM and 460%.
Take `COc1nc(C)cc2c1C(=O)N[C@H](C(=O)NC[C@@H](O)c1nc(C3CC3)no1)CC(=O)N(C)[C@@H](CC(C)C)C(=O)N(C)[C@H](Cc1nc(C(F)(F)F)no1)C(=O)N[C@H](Cc1ccccc1)CO2` [Example 943, (3R,6R,9S,13S)-3-benzyl-N-((R)-2-(3-cyclopropyl-1,2,4-oxadiazol-5-yl)-2-hydroxyethyl)-9-isobutyl-16-methoxy-7,10,18-trimethyl-5,8,11,15-tetraoxo-6-((3-(trifluoromethyl)-1,2,4-oxadiazol-5-yl)methyl)-2,3,4,5,6,7,8,9,10,11,12,13,14,15-tetradecahydropyrido[3,4-p][1]oxa[4,7,10,14]tetraazacycloheptadecine-13-carboxamide]: the EC50 was found to be 240 nM and the Emax was 471%.
Taken in the same sequence, the figures for `CC(C)C[C@H]1C(=O)N(C)[C@H](Cc2nc(C(F)(F)F)no2)C(=O)N[C@H](Cc2ccccc2)COc2ccc3ncc(F)cc3c2C(=O)N[C@H](C(=O)NCCCOC(F)F)CC(=O)N1C` [Example 944, (3S,7S,10R,13R)-13-benzyl-N-(3-(difluoromethoxy)propyl)-20-fluoro-7-isobutyl-6,9-dimethyl-1,5,8,11-tetraoxo-10-((3-(trifluoromethyl)-1,2,4-oxadiazol-5-yl)methyl)-1,2,3,4,5,6,7,8,9,10,11,12,13,14-tetradecahydro-[1]oxa[4,7,10,14]tetraazacycloheptadecino[16,17-f]quinoline-3-carboxamide] were 77 nM and 336%.
On the same counts, the results for `COc1noc(CCNC(=O)[C@@H]2CC(=O)N(C)[C@@H](CC(C)C)C(=O)N(C)[C@H](Cc3nc(C(F)(F)F)no3)C(=O)N[C@H](Cc3ccccc3)COc3cc(C)nc(OC)c3C(=O)N2)c1F` [Example 945, (3R,6R,9S,13S)-3-benzyl-N-(2-(4-fluoro-3-methoxyisoxazol-5-yl)ethyl)-9-isobutyl-16-methoxy-7,10,18-trimethyl-5,8,11,15-tetraoxo-6-((3-(trifluoromethyl)-1,2,4-oxadiazol-5-yl)methyl)-2,3,4,5,6,7,8,9,10,11,12,13,14,15-tetradecahydropyrido[3,4-p][1]oxa[4,7,10,14]tetraazacycloheptadecine-13-carboxamide] are 33 nM and 502%.
On the same counts, the results for `Cc1cc(CCNC(=O)[C@@H]2CC(=O)N(C)[C@@H](CC(C)C)C(=O)N(C)[C@H](CC(F)F)C(=O)N[C@H](Cc3ccccc3)COc3ccc4ncc(F)cc4c3C(=O)N2)on1` [Example 946, (3S,7S,10R,13R)-13-benzyl-10-(2,2-difluoroethyl)-20-fluoro-7-isobutyl-6,9-dimethyl-N-(2-(3-methylisoxazol-5-yl)ethyl)-1,5,8,11-tetraoxo-1,2,3,4,5,6,7,8,9,10,11,12,13,14-tetradecahydro-[1]oxa[4,7,10,14]tetraazacycloheptadecino[16,17-f]quinoline-3-carboxamide] are 447 nM and 404%.
For `COc1noc(CCNC(=O)[C@@H]2CC(=O)N(C)[C@@H](CC(C)C)C(=O)N(C)[C@H](CC(F)F)C(=O)N[C@H](Cc3ccccc3)COc3ccc4ncc(F)cc4c3C(=O)N2)n1` [Example 947, (3S,7S,10R,13R)-13-benzyl-10-(2,2-difluoroethyl)-20-fluoro-7-isobutyl-N-(2-(3-methoxy-1,2,4-oxadiazol-5-yl)ethyl)-6,9-dimethyl-1,5,8,11-tetraoxo-1,2,3,4,5,6,7,8,9,10,11,12,13,14-tetradecahydro-[1]oxa[4,7,10,14]tetraazacycloheptadecino[16,17-f]quinoline-3-carboxamide], the EC50 was 281 nM and the Emax worked out at 458%.
For `COc1cc(CCNC(=O)[C@@H]2CC(=O)N(C)[C@@H](CC(C)C)C(=O)N(C)[C@H](Cc3nc(C(F)(F)F)no3)C(=O)N[C@H](Cc3ccccc3)COc3ccnc(OC)c3C(=O)N2)on1` [Example 948, (3R,6R,9S,13S)-3-benzyl-9-isobutyl-16-methoxy-N-(2-(3-methoxyisoxazol-5-yl)ethyl)-7,10-dimethyl-5,8,11,15-tetraoxo-6-((3-(trifluoromethyl)-1,2,4-oxadiazol-5-yl)methyl)-2,3,4,5,6,7,8,9,10,11,12,13,14,15-tetradecahydropyrido[3,4-p][1]oxa[4,7,10,14]tetraazacycloheptadecine-13-carboxamide], the EC50 came to 61 nM and the Emax amounted to 501%.
On to `COc1noc(CCNC(=O)[C@@H]2CC(=O)N(C)[C@@H](CC(C)C)C(=O)N(C)[C@H](Cc3nc(C(F)(F)F)no3)C(=O)N[C@H](Cc3ccccc3)COc3ccnc(OC)c3C(=O)N2)n1` [Example 949, (3R,6R,9S,13S)-3-benzyl-9-isobutyl-16-methoxy-N-(2-(3-methoxy-1,2,4-oxadiazol-5-yl)ethyl)-7,10-dimethyl-5,8,11,15-tetraoxo-6-((3-(trifluoromethyl)-1,2,4-oxadiazol-5-yl)methyl)-2,3,4,5,6,7,8,9,10,11,12,13,14,15-tetradecahydropyrido[3,4-p][1]oxa[4,7,10,14]tetraazacycloheptadecine-13-carboxamide], for which the EC50 was found to be 113 nM and the Emax was found to be 518%.
Regarding `Cc1cc2c3c(ccc2cn1)OC[C@@H](Cc1ccccc1)NC(=O)[C@@H](CC(F)(F)F)N(C)C(=O)[C@H](CC(C)C)N(C)C(=O)C[C@@H](C(=O)NCCc1noc(C2CC2)n1)NC3=O` [Example 950, (3S,7S,10R,13R)-13-benzyl-N-(2-(5-cyclopropyl-1,2,4-oxadiazol-3-yl)ethyl)-7-isobutyl-6,9,20-trimethyl-1,5,8,11-tetraoxo-10-(2,2,2-trifluoroethyl)-1,2,3,4,5,6,7,8,9,10,11,12,13,14-tetradecahydro-[1]oxa[4,7,10,14]tetraazacycloheptadecino[16,17-f]isoquinoline-3-carboxamide], the EC50 came to 201 nM and the Emax amounted to 464%.
Regarding `Cc1cc2c3c(ccc2cn1)OC[C@@H](Cc1ccccc1)NC(=O)[C@@H](CC(F)(F)F)N(C)C(=O)[C@H](CC(C)C)N(C)C(=O)C[C@@H](C(=O)NCCc1nc(C2CC2)no1)NC3=O` [Example 951, (3S,7S,10R,13R)-13-benzyl-N-(2-(3-cyclopropyl-1,2,4-oxadiazol-5-yl)ethyl)-7-isobutyl-6,9,20-trimethyl-1,5,8,11-tetraoxo-10-(2,2,2-trifluoroethyl)-1,2,3,4,5,6,7,8,9,10,11,12,13,14-tetradecahydro-[1]oxa[4,7,10,14]tetraazacycloheptadecino[16,17-f]isoquinoline-3-carboxamide], the EC50 came out at 165 nM and the Emax is 405%.
On the same counts, the results for `Cc1cc2c3c(ccc2cn1)OC[C@@H](Cc1ccccc1)NC(=O)C1(CC(F)(F)C1)N(C)C(=O)[C@H](CC(C)C)N(C)C(=O)C[C@@H](C(=O)NCCc1nc(C2CC2)no1)NC3=O` [Example 952, (3′S,7′S,13′R)-13′-benzyl-N-(2-(3-cyclopropyl-1,2,4-oxadiazol-5-yl)ethyl)-3,3-difluoro-7′-isobutyl-6′,9′,20′-trimethyl-1′,5′,8′,11′-tetraoxo-2′,3′,4′,5′,6′,7′,8′,9′,11′,12′,13′,14′-dodecahydro-1′H-spiro[cyclobutane-1,10′-[1]oxa[4,7,10,14]tetraazacycloheptadecino[16,17-f]isoquinoline]-3′-carboxamide] are 339 nM and 438%.
For `COc1cc(CCNC(=O)[C@@H]2CC(=O)N(C)[C@@H](CC(C)C)C(=O)N(C)C3(CC(F)(F)C3)C(=O)N[C@H](Cc3ccccc3)COc3ccc4cnc(C)cc4c3C(=O)N2)on1` [Example 953, (3′S,7′S,13′R)-13′-benzyl-3,3-difluoro-7′-isobutyl-N-(2-(3-methoxyisoxazol-5-yl)ethyl)-6′,9′,20′-trimethyl-1′,5′,8′,11′-tetraoxo-2′,3′,4′,5′,6′,7′,8′,9′,11′,12′,13′,14′-dodecahydro-1′H-spiro[cyclobutane-1,10′-[1]oxa[4,7,10,14]tetraazacycloheptadecino[16,17-f]isoquinoline]-3′-carboxamide], the EC50 came out at 268 nM and the Emax is 394%.
As for `COc1noc(CCNC(=O)[C@@H]2CC(=O)N(C)[C@@H](CC(C)C)C(=O)N(C)C3(CC(F)(F)C3)C(=O)N[C@H](Cc3ccccc3)COc3ccc4cnc(C)cc4c3C(=O)N2)n1` [Example 954, (3′S,7′S,13′R)-13′-benzyl-3,3-difluoro-7′-isobutyl-N-(2-(3-methoxy-1,2,4-oxadiazol-5-yl)ethyl)-6′,9′,20′-trimethyl-1′,5′,8′,11′-tetraoxo-2′,3′,4′,5′,6′,7′,8′,9′,11′,12′,13′,14′-dodecahydro-1′H-spiro[cyclobutane-1,10′-[1]oxa[4,7,10,14]tetraazacycloheptadecino[16,17-f]isoquinoline]-3′-carboxamide], the EC50 worked out at 382 nM and the Emax came out at 383%.
